According to patent US9226913B2, “Methods of treating cancer using a combination of an immunomodulatory compound and an artemisinin or a derivative thereof” (Celgene Corporation, priority 2010, dated 2016):
Like-named read-outs stand apart in the source and are kept apart here.

What was measured:
HCT116^poly cells = test: MTT proliferation assay, 72 hr (Example 6.2); type: cell-based, human; details: HCT116^poly (polyploid extended-passage variant)
Procedure: (§1) To study the effect of each agent on cell growth, cells growing exponentially were added to 96-well plates at a density of 3×10^4/well. Drugs (0.1-100 μM) were then added to the wells, ensuring an equal volume of 200 μl across the plate. Cell number was measured at 72 hr using a standard methylthiazoletetrazolium (MTT)-based assay without modifications as described previously (Gordi et al., 2004, Toxicol. Lett. 147: 99-107). Briefly, MTT (Sigma) was added to each well to give a working concentration of 0.4 mg/ml, and plates returned to the incubator for a further 1 hr. After this time, the medium was aspirated off, 200 μl of DMSO was then added to each well, and plates agitated gently for 5 min before measuring optical density at 540 nm in each well.

HCT116^norm cells [1] = details: read-out: concentration required to achieve ~50% cell kill, ART and OXP used simultaneously, ART + OXP combination (ratio 1:2.5)
Text: The combination studies followed an approach previously described (Gordi et al., 2004, Toxicol. Lett. 147: 99-107). HCT116^norm, A549, MCF7 and HCT116^poly cells (5×10^4/well) growing exponentially were reset in fresh culture medium and aliquoted into 96-well plates. ART was the primary drug partner and combined with OXP at an equal ratio of their respective IC50 (eg. ½×IC50 of ART was combined with ½×IC50 of OXP). Fixing this ratio also kept constant the amount of one drug respective to the other. For instance, ART was combined with OXP at a constant ratio of 1:2.5. Cells were incubated for 72 hr in a humidified atmosphere with 5% CO2 in air at 37° C. Cell number was assessed by the MTT assay as described previously. The activities of drug combinations were established by comparing optical density readings from the treated wells with the control wells with no drug treatment, and the natures of drug-drug interactions then assessed by calculating a combination index (CI) by using the median-effect equation, where CI-values of 1 indicated additivity; CI<1 indicated synergy and CI>1 indicated antagonism.

MCF7 cells = test: MTT proliferation assay, 72 hr (Example 6.2); type: cell-based, human; details: MCF7, 72 h, mean ± SD of at least five experiments
Procedure: (§2) The human cancer cell lines; MCF7 (breast), HCT116 (colon) and A549 (lung) (Cancer Research UK, London, UK), were grown in either DMEM (Sigma) or RPMI (Sigma) media supplemented with 10% foetal bovine serum, 2 mM L-glutamine, 1% penicillin/streptomycin.
as §1

A549 cells = test: MTT proliferation assay, 72 hr (Example 6.2); type: cell-based, human; details: A549, 72 h, mean ± SD of at least five experiments
Procedure: as §2, §1

HCT116^norm cells [2] = test: MTT proliferation assay, 72 hr (Example 6.2); type: cell-based, human
Procedure: as §2, §1

In the case of `O=C1[O][Pt]2([NH][C@@H]3CCCC[C@H]3[NH]2)[O]C1=O` [Oxaliplatin, oxaliplatin], the IC50 (HCT116^poly cells) is reported as 5.8 µM, the IC50 (HCT116^norm cells [1]) is reported as 1.6 µM and the IC50 (MCF7 cells) is reported as 6.1 ± 1.1 µM. The IC50 (A549 cells) was 6.2 ± 0.95 µM, the IC50 (HCT116^norm cells [2]; 72 h, MTT, mean ± SD of at least five experiments, listed as OXP, read-out: IC50) was 5.3 µM and the IC50 (HCT116^norm cells [2]; 72 h, MTT, mean ± SD of at least five experiments, read-out: IC50) was 4.05 ± 1.8 µM. The IC50 (HCT116^norm cells [2]; single agent, read-out: concentration required to achieve ~50% cell kill, used separately) was 4 µM.
